SMILES strings stand for the structures.

In the assay the target is T1, GLP-1R (Homo sapiens, UniProt P43220).
T1 construct: host or cells: GLP-1R CRE-bla CHO-K1 cells
T1 sequence (P43220 24-463): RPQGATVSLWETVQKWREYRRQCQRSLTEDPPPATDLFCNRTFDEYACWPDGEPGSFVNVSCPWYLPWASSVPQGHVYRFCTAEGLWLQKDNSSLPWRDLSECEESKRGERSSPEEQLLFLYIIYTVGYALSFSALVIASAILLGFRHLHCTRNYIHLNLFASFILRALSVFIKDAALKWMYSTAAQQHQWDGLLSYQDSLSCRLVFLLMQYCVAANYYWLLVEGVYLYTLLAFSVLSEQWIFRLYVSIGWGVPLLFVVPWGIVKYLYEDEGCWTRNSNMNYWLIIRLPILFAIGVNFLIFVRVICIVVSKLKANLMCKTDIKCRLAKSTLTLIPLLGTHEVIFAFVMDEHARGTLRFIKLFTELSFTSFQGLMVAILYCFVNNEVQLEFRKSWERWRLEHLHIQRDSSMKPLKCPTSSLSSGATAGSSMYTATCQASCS
T1 sequence (P01275 100-127 partner limits assumed): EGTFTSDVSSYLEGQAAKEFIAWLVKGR
In words: EC20 GLP-1(9-36) PAM cAMP assay: dose response of compound in the presence of fixed concentration of GLP-1(9-36). The assay is classed as cell-based. Conditions: dose response of compound in presence of fixed concentration of GLP-1(9-36), GLP-1R CRE-bla CHO-K1 cells, read-out: EC20 GLP-1(9-36) PAM EC50. An outline of the steps:
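GLP-1R CRE-bla CHO-K1 cells treated 30 min at 37 °C with 12-point compound dose response plus fixed EC20 GLP-1(9-36), with IBMX, in HBSS/HEPES/0.1% BSA pH 7.4. Total cAMP measured by luminescent detection against standard curve; EC50 and Emax from non-linear regression.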
`CC(C)(C)c1ccc(C(=O)N[C@@H](Cc2ccc(-c3ncc(-c4ccc(OCCC5CCCC5)cc4)cn3)cc2)C(=O)NC(C(=O)O)C(O)c2ccccc2)s1` (stereo partly shown) [Compound 939]: the EC50 is 2.5 to 5 µM.
Turning to `CC(C)(C)c1ccc(C(=O)N[C@@H](Cc2ccc(-c3ncc(-c4ccc(OCC5CCCC5)cc4)cn3)cc2)C(=O)NC(C(=O)O)C(O)c2ccccc2)s1` (stereo partly shown) [Compound 940], the EC50 was 0.8 to 2.5 µM.
For the compound `CC(C)(C)CCOc1ccc(-c2cnc(-c3ccc(C[C@H](NC(=O)c4ccc(C(C)(C)C)s4)C(=O)NC(C(=O)O)C(O)c4ccccc4)cc3)nc2)cc1` (stereo partly shown) [Compound 941], the EC50 was in the range of 2.5 to 5 µM.
Next, `CC(C)CCOc1ccc(-c2cnc(-c3ccc(C[C@H](NC(=O)c4ccc(C(C)(C)C)s4)C(=O)NC(C(=O)O)C(O)c4ccccc4)cc3)nc2)cc1` (stereo partly shown) [Compound 942]: 2.5 to 5 µM; `CCCCCCOc1ccc(-c2cnc(-c3ccc(C[C@H](NC(=O)c4ccc(C(C)(C)C)s4)C(=O)NC(C(=O)O)C(O)c4ccccc4)cc3)nc2)cc1` (stereo partly shown) [Compound 943]: 0.8 to 2.5 µM; `CC(C)(C)CCCOc1ccc(-c2cnc(-c3ccc(C[C@H](NC(=O)c4ccc(C(C)(C)C)s4)C(=O)N4CC(C(=O)O)C4)cc3)nc2)cc1` [Compound 944]: less than 0.8 µM.
The figure for `CC(C)(C)c1ccc(C(=O)N[C@@H](Cc2ccc(-c3ncc(-c4ccc(OCCC5CCCCC5)cc4)cn3)cc2)C(=O)N2CC(C(=O)O)C2)s1` [Compound 945] is less than 0.8 µM; for `CCCCCCCOc1ccc(-c2cnc(-c3ccc(C[C@H](NC(=O)c4ccc(C(C)(C)C)s4)C(=O)O)cc3)c(C)c2)cc1` [Compound 946] it is 2.5 to 5 µM; for `CCCCCCCOc1ccc(-c2cnc(-c3ccc(C[C@H](NC(=O)c4ccc(CC)cc4)C(=O)NC(C(=O)O)C(O)c4ccccc4)cc3)nc2)cc1` (stereo partly shown) [Compound 947] it is 0.8 to 2.5 µM.
The figure for `CCCCCCCOc1ccc(-c2cnc(-c3ccc(C[C@H](NC(=O)c4ccc(C(F)(F)F)s4)C(=O)NC(C(=O)O)C(O)c4ccccc4)cc3)nc2)cc1` (stereo partly shown) [Compound 948] is 2.5 to 5 µM.
For the compound `CCCCCCCOc1ccc(-c2cnc(-c3ccc(C[C@H](NC(=O)c4ccc(OCC)cc4)C(=O)NC(C(=O)O)C(O)c4ccccc4)cc3)nc2)cc1` (stereo partly shown) [Compound 949], the EC50 was in the range of 0.8 to 2.5 µM.
The figure for `CCCCCCCOc1ccc(-c2cnc(-c3ccc(C[C@H](NC(=O)c4ccc(OC(C)C)cc4)C(=O)NC(C(=O)O)C(O)c4ccccc4)cc3)nc2)cc1` (stereo partly shown) [Compound 950] is 0.8 to 2.5 µM; for `CCCCCCCOc1ccc(-c2cnc(-c3ccc(C[C@H](NC(=O)c4ccc(C(C)C)cc4)C(=O)NC(C(=O)O)C(O)c4ccccc4)cc3)nc2)cc1` (stereo partly shown) [Compound 951] it is 0.8 to 2.5 µM.
The figure for `CCCCCCCOc1ccc(-c2cnc(-c3ccc(C[C@H](NC(=O)c4ccc(C(C)(C)C)cc4OC)C(=O)NC(C(=O)O)C(O)c4ccccc4)cc3)nc2)cc1` (stereo partly shown) [Compound 952] is 2.5 to 5 µM; for `CCCCCCCOc1ccc(-c2cnc(-c3ccc(C[C@H](NC(=O)c4cnc(C(C)(C)C)nc4)C(=O)NC(C(=O)O)C(O)c4ccccc4)cc3)nc2)cc1` (stereo partly shown) [Compound 953] it is 0.8 to 2.5 µM.
The figure for `CCCCCCCOc1ccc(-c2cnc(-c3ccc(C[C@H](NC(=O)c4cnn(C(C)(C)C)c4)C(=O)NC(C(=O)O)C(O)c4ccccc4)cc3)nc2)cc1` (stereo partly shown) [Compound 954] is 0.8 to 2.5 µM; for `CCCCCCCOc1ccc(-c2cnc(-c3ccc(C[C@H](NC(=O)/C=C/C(C)(C)C)C(=O)NC(C(=O)O)C(O)c4ccccc4)cc3)nc2)cc1` (stereo partly shown) [Compound 955] it is 5 to 10 µM; for `CCCCCCCOc1ccc(-c2cnc(-c3ccc(C[C@H](NC(=O)c4ccc(C5CC5)s4)C(=O)NC(C(=O)O)C(O)c4ccccc4)cc3)nc2)cc1` (stereo partly shown) [Compound 956] it is 2.5 to 5 µM.
With `CCCCCCCOc1ccc(-c2cnc(-c3ccc(C[C@H](NC(=O)c4ccc(CC)s4)C(=O)NC(C(=O)O)C(O)c4ccccc4)cc3)nc2)cc1` (stereo partly shown) [Compound 957], the EC50 was in the range of 0.8 to 2.5 µM.
The figure for `CCCCCCCOc1ccc(-c2cnc(-c3ccc(C[C@H](NC(=O)c4ccc(C(C)C)s4)C(=O)NC(C(=O)O)C(O)c4ccccc4)cc3)nc2)cc1` (stereo partly shown) [Compound 958] is 0.8 to 2.5 µM.
Next, `CCCCCCCOc1ccc(-c2cnc(-c3ccc(C[C@H](NC(=O)c4ccc(CCC)s4)C(=O)NC(C(=O)O)C(O)c4ccccc4)cc3)nc2)cc1` (stereo partly shown) [Compound 959]: 0.8 to 2.5 µM.
Next, `CCCCCCCOc1ccc(-c2cnc(-c3ccc(C[C@H](NC(=O)c4ccc(O)c(F)c4)C(=O)NC(C(=O)O)C(O)c4ccccc4)cc3)nc2)cc1` (stereo partly shown) [Compound 960]: 0.8 to 2.5 µM.
With `CCCCCCCOc1ccc(-c2cnc(-c3ccc(C[C@H](NC(=O)c4ccc(C(C)(C)C)s4)C(=O)NCCCN4CCN(C)CC4)cc3)nc2)cc1` [Compound 961], the EC50 lay within 2.5 to 5 µM.
Next, `CCCCCCCOc1ccc(-c2cnc(-c3ccc(C[C@H](NC(=O)c4ccc(C(C)(C)C)s4)C(=O)NCCCN(C)C)cc3)nc2)cc1` [Compound 962]: 0.8 to 2.5 µM; `CCCCCCCOc1ccc(-c2cnc(-c3ccc(C[C@H](NC(=O)c4ccc(C(C)(C)C)s4)C(=O)N4CCCN(C)CC4)cc3)nc2)cc1` [Compound 963]: 5 to 10 µM.
Next, `CCCCCCCOc1ccc(-c2cnc(-c3ccc(C[C@H](NC(=O)c4ccc(C(C)(C)C)s4)C(=O)NCCCN4CCOCC4)cc3)nc2)cc1` [Compound 964]: 2.5 to 5 µM.
Take `CCCCCCCOc1ccc(-c2cnc(-c3ccc(C[C@H](NC(=O)c4ccc(C(C)(C)C)s4)C(=O)Nc4ccc(C(F)(F)F)cc4)cc3)nc2)cc1` [Compound 965]: the EC50 lay in the range of 5 to 10 µM.
Next, `CCCCCCCOc1ccc(-c2cnc(-c3ccc(C[C@H](NC(=O)c4ccc(C(C)(C)C)s4)C(=O)N4CCCNCC4)cc3)nc2)cc1` [Compound 966]: 5 to 10 µM; `CCCCCCCOc1ccc(-c2cnc(-c3ccc(C[C@H](NC(=O)c4ccc(C(C)(C)C)s4)C(=O)N4CCN(c5ncccn5)CC4)cc3)nc2)cc1` [Compound 967]: 2.5 to 5 µM; `CCCCCCCOc1ccc(-c2cnc(-c3ccc(C[C@H](NC(=O)c4ccc(C(C)(C)C)s4)C(=O)NCC4CC4)cc3)nc2)cc1` [Compound 968]: 5 to 10 µM.
For the compound `CCCCCCCOc1ccc(-c2cnc(-c3ccc(C[C@H](NC(=O)c4ccc(C(C)(C)C)s4)C(=O)N(CC)CCO)cc3)nc2)cc1` [Compound 969], the EC50 lay in the range of 2.5 to 5 µM.
Next, `CCCCCCCOc1ccc(-c2cnc(-c3ccc(C[C@H](NC(=O)c4ccc(C(C)(C)C)s4)C(=O)NCCCN(CC)CC)cc3)nc2)cc1` [Compound 970]: 2.5 to 5 µM; `CCCCCCCOc1ccc(-c2cnc(-c3ccc(C[C@H](NC(=O)c4ccc(C(C)(C)C)s4)C(=O)N(C)CC4CCN(CCOC)CC4)cc3)nc2)cc1` [Compound 971]: 2.5 to 5 µM; `CCCCCCCOc1ccc(-c2cnc(-c3ccc(C[C@H](NC(=O)c4ccc(C(C)(C)C)s4)C(=O)N4CC(C(N)=O)C4)cc3)nc2)cc1` [Compound 972]: 5 to 10 µM.
The figure for `CCCCCCCOc1ccc(-c2cnc(-c3ccc(C[C@H](NC(=O)c4ccc(C(C)(C)C)s4)C(=O)NC[C@H]4CCCN4C)cc3)nc2)cc1` [Compound 973] is 5 to 10 µM; for `CCCCCCCOc1ccc(-c2cnc(-c3ccc(C[C@H](NC(=O)c4ccc(C(C)(C)C)s4)C(=O)N4CC(C(=O)N(C)C)C4)cc3)nc2)cc1` [Compound 974] it is 2.5 to 5 µM; for `CCCCCCCOc1ccc(-c2cnc(-c3ccc(C[C@H](NC(=O)c4ccc(C(C)(C)C)s4)C(=O)N4CC(CN(C)C)C4)cc3)nc2)cc1` [Compound 975] it is 5 to 10 µM.
For `CCCCCCCOc1ccc(-c2cnc(-c3ccc(C[C@H](NC(=O)c4ccc(C(C)(C)C)s4)C(=O)N4CC(N(C)C)C4)cc3)nc2)cc1` [Compound 976], the EC50 was in the range of 2.5 to 5 µM.
The figure for `CCCCCCCOc1ccc(-c2cnc(-c3ccc(C[C@H](NC(=O)c4ccc(C(C)(C)C)s4)C(=O)N4CC[C@H](O)C4)cc3)nc2)cc1` [Compound 977] is 5 to 10 µM.
Turning to `CCCCCCCOc1ccc(-c2cnc(-c3ccc(C[C@H](NC(=O)c4ccc(C(C)(C)C)s4)C(=O)N4CC(c5nn[nH]n5)C4)cc3)nc2)cc1` [Compound 978], the EC50 was in the range of 0.8 to 2.5 µM.
Next, `CCCCCCCOc1ccc(-c2cnc(-c3ccc(C[C@H](NC(=O)Cc4ccc(OCCCC)cc4)C(=O)N[C@H](C)C(=O)O)cc3)nc2)cc1` [Compound 979]: 2.5 to 5 µM; `CCCCCCCOc1ccc(-c2cnc(-c3ccc(C[C@H](NC(=O)c4ccc5c(c4)OCCO5)C(=O)N[C@H](C)C(=O)O)cc3)nc2)cc1` [Compound 980]: 0.8 to 2.5 µM.
Consider `CCCCCCCOc1ccc(-c2cnc(-c3ccc(C[C@H](NC(=O)c4ccc(C(=O)c5ccccc5)cc4)C(=O)N[C@H](C)C(=O)O)cc3)nc2)cc1` [Compound 981], for which the EC50 lay within 2.5 to 5 µM.
Next, `CCCCCCCOc1ccc(-c2cnc(-c3ccc(C[C@H](NC(=O)c4ccc(OCCC)cc4)C(=O)N[C@H](C)C(=O)O)cc3)nc2)cc1` [Compound 982]: 5 to 10 µM; `CCCCCCCOc1ccc(-c2cnc(-c3ccc(C[C@H](NC(=O)c4ccc(O)c(F)c4)C(=O)N[C@H](C)C(=O)O)cc3)nc2)cc1` [Compound 983]: 5 to 10 µM.
Regarding `CCCCCCCOc1ccc(-c2cnc(-c3ccc(C[C@H](NC(=O)c4ccc(C(C)(C)C)s4)C(=O)NC4CCNC4)cc3)nc2)cc1` (stereo partly shown) [Compound 984], the EC50 was in the range of 2.5 to 5 µM.
The figure for `CCCCCCCOc1ccc(-c2cnc(-c3ccc(C[C@H](NC(=O)c4ccc(C(C)(C)C)s4)C(=O)NC4CNC4)cc3)nc2)cc1` [Compound 985] is 2.5 to 5 µM; for `CCCCCCCOc1ccc(-c2cnc(-c3ccc(C[C@H](NC(=O)c4ccc(C(C)(C)C)s4)C(=O)NCC4(C)CNC4)cc3)nc2)cc1` [Compound 986] it is 0.8 to 2.5 µM.
The figure for `CCCCCCCOc1ccc(-c2cnc(-c3ccc(C[C@H](NC(=O)c4ccc(C(C)(C)C)s4)C(=O)N4CC[C@@H](N)C4)cc3)nc2)cc1` [Compound 987] is 5 to 10 µM.

Source of the values: patent US10034886B2, “GLP-1 receptor modulators” (Celgene International II SÀRL, priority 2014, dated 2018).
